Laboratory results: ChEMBL document CHEMBL1138162, “Phenyl ureas of creatinine as mGluR5 antagonists. A structure-activity relationship study of fenobam analogues” (Bioorg Med Chem Lett, 2006)

Legend:
[1] = molecular target: Metabotropic glutamate receptor 5 (Rattus norvegicus, UniProt P31424); assay: Displacement of [3H]MPEP from mGluR5d in rat brain membrane; type: cell membranes
[2] = molecular target: Metabotropic glutamate receptor 5 (Homo sapiens, UniProt P41594); assay: Inhibition of glutamate-induced calcium influx in human mGluR5d by FLIPR; type: functional
Sequence of Metabotropic glutamate receptor 5 (Homo sapiens, UniProt P41594) (P41594 whole entry): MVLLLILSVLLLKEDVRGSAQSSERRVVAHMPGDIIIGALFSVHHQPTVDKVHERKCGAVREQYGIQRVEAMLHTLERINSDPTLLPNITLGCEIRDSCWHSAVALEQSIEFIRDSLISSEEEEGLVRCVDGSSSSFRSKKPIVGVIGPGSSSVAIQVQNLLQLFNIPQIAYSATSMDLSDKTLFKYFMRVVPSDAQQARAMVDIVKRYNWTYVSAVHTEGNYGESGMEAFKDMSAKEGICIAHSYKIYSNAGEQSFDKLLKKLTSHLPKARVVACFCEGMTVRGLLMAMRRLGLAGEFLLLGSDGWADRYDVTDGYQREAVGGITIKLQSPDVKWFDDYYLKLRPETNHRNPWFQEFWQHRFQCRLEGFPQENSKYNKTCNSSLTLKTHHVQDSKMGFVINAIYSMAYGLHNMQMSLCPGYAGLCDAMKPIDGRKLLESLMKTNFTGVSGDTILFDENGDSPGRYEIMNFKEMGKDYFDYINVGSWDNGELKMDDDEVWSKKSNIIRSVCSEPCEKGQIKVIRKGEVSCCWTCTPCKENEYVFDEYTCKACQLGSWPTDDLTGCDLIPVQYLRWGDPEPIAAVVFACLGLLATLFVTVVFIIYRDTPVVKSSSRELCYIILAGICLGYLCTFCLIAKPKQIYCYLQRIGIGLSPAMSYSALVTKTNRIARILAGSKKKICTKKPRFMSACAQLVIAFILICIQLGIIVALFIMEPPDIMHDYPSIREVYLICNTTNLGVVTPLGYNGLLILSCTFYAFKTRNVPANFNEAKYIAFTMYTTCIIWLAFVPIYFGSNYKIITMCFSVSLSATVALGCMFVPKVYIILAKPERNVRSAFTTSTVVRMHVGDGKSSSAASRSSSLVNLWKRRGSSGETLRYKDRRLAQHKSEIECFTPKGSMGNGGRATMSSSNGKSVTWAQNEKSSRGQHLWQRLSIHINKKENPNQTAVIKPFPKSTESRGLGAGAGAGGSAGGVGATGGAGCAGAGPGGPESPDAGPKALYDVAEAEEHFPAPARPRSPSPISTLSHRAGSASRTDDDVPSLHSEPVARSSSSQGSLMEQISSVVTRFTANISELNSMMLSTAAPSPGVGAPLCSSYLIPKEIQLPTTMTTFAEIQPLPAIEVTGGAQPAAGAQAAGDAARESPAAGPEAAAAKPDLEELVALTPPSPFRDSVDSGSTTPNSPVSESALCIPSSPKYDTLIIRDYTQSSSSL

Rattus norvegicus = species on record: Rattus norvegicus; assay: Clearance in rat; type: ADME, organism-based; conditions: in vivo
Homo sapiens = species on record: Homo sapiens; assay: Clearance in human; type: ADME, organism-based; conditions: in vivo

Sequence of Metabotropic glutamate receptor 5 (Rattus norvegicus, UniProt P31424) (P31424 whole entry): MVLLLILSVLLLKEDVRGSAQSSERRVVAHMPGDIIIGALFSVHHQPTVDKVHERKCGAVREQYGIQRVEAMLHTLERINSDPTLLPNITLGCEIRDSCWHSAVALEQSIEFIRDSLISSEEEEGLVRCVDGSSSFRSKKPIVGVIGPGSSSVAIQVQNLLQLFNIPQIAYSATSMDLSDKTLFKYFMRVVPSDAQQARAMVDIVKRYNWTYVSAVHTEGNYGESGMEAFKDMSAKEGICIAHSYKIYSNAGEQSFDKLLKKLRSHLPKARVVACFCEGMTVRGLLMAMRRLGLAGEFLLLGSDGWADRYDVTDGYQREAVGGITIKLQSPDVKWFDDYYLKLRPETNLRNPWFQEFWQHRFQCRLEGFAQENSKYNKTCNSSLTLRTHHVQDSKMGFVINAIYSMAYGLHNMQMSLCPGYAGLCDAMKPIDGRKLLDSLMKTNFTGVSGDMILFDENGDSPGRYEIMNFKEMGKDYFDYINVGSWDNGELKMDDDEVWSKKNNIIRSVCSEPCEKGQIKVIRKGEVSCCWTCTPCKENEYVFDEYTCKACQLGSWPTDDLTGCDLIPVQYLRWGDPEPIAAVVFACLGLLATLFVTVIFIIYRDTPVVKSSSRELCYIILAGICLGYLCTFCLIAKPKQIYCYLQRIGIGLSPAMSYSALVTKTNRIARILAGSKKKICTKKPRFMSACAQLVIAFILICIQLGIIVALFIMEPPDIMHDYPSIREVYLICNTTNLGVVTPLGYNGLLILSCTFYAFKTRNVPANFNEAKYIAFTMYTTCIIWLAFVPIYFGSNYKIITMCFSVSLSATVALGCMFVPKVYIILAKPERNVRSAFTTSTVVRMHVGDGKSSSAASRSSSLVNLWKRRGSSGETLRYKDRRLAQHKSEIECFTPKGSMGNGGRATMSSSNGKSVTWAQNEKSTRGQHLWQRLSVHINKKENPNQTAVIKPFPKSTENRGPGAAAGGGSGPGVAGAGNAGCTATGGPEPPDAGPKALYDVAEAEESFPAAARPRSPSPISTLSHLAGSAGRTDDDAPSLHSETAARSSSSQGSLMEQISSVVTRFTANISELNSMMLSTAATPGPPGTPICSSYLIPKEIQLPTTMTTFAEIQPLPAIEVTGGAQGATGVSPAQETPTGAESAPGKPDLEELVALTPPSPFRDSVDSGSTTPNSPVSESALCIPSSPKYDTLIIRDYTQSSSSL

| SMILES | IC50 [1] [nM] | IC50 ([2]; read-out: IC50) [nM] | other results |
| --- | --- | --- | --- |
| O=C(NC1=NC(=O)C2CCCN12)Nc1cccc(Cl)c1 (stereo not given) | 1600 | 800 |  |
| O=C(NC1=NC(=O)C2CCCN12)Nc1ccccc1 (stereo not given) |  | 4200 |  |
| CCN1CC(=O)N=C1NC(=O)Nc1cccc(Cl)c1 | 180 | 250 |  |
| Cc1ccc(C)c(NC(=O)NC2=NC(=O)C3CCCN23)c1 (stereo not given) |  | > 10000 |  |
| Cn1ccnc1NC(=O)Nc1cccc(Cl)c1 | > 10000 | > 10000 |  |
| Cc1ccc(NC(=O)NC2=NC(=O)C3CCCN23)cc1Cl (stereo not given) |  | > 10000 |  |
| O=C(NC1=NC(=O)C2CCCN12)Nc1ccc(Cl)cc1 (stereo not given) |  | > 10000 |  |
| COc1cccc(NC(=O)NC2=NC(=O)CN2C)c1 |  | 2800 |  |
| Cc1cccc(NC(=O)NC2=NC(=O)CN2C)c1 |  | 550 |  |
| CN1CC(=O)N=C1NC(=O)Nc1cccc(C#N)c1 | 3400 | 3900 |  |
| CN1CC(=O)N=C1NC(=O)Nc1cccc(Br)c1 |  | 380 |  |
| CN1CC(=O)N=C1NC(=O)Cc1cccc(Cl)c1 |  |  | IC50 [2]: Not Active |
| CN1CC(=O)N/C1=N\C(=O)Nc1ccccc1 |  | 4900 |  |
| CCCCCCNC(=O)NC1=NC(=O)CN1C |  | > 10000 |  |
| CN1CC(=O)N=C1NC(=O)Nc1cc(Cl)cc(Cl)c1 |  | > 10000 |  |
| CN1CCC/C1=N\C(=O)Nc1cccc(Cl)c1 | 2000 | 620 |  |
| Cc1cccc(NC(=O)NC2=NC(=O)C(c3ccccc3)N2C)c1 (stereo not given) | > 10000 | 1400 |  |
| Cc1cccnc1NC(=O)NC1=NC(=O)CN1C |  | 1900 |  |
| Cc1ccc(NC(=O)NC2=NC(=O)CN2C)nc1 |  | 3100 |  |
| CN1CC(=O)N=C1NC(=O)Nc1cccs1 |  | 4900 |  |
| CN1CC(=O)N=C1NC(=O)Nc1cccc(Cl)c1 [FENOBAM ANHYDROUS] | 460 | 330 | CL (Rattus norvegicus): 50 µL/min/mg; CL (Homo sapiens): 50 µL/min/mg |
| Cc1cccc(C)c1NC(=O)/N=C1\CCCN1C [XILOBAM] |  | > 10000 |  |

Second part, led by results:

| IC50 [1] [nM] | IC50 ([2]; read-out: IC50) [nM] | SMILES | other results |
| --- | --- | --- | --- |
| 1200 | 260 | CN1CCS/C1=N\C(=O)Nc1cccc(Cl)c1 |  |
| 320 | 410 | CCN1C(NC(=O)Nc2cccc(Cl)c2)=NC(=O)C1C (stereo not given) |  |
|  | > 10000 | Cc1cccc(NC(=O)NC2=NC(=O)C3CCCN23)c1C (stereo not given) |  |
| 1300 | 680 | CCCCN1CC(=O)N=C1NC(=O)Nc1cccc(Cl)c1 |  |
| > 10000 | > 10000 | CN1C(=O)CN=C1NC(=O)Nc1cccc(Cl)c1 |  |
|  | > 10000 | Cc1ccccc1NC(=O)NC1=NC(=O)C2CCCN12 (stereo not given) |  |
| 1300 | 490 | CC1C(=O)N=C(NC(=O)Nc2cccc(Cl)c2)N1C (stereo not given) |  |
|  | 2300 | CN1CC(=O)N=C1NC(=O)c1cccc(Cl)c1 |  |
|  | > 10000 | COC(=O)c1cccc(NC(=O)NC2=NC(=O)CN2C)c1 |  |
